Data: US20130143929A1, “FUNGICIDAL IMIDAZOLES” (EI DU PONT DE NEMOURS AND COMPANY, priority 2010, published 2013)
Marks after values point to notes of the source that are not given here.

How the values were obtained:
Format in all cases: in vivo
[1] = test system: Botrytis cinerea (the causal agent of tomato Botrytis); assay: Test C: tomato Botrytis, preventive spray on tomato seedlings, visual disease rating; settings: for Test C rating (100 = 100% disease control, 0 = no disease control relative to the controls): tomato Botrytis, preventive spray on tomato seedlings
Text: (§1) General protocol for preparing test suspensions for Tests A-D: the test compounds were first dissolved in acetone in an amount equal to 3% of the final volume and then suspended at the desired concentration (in ppm) in acetone and purified water (50/50 mix by volume) containing 250 ppm of the surfactant Trem® 014 (polyhydric alcohol esters). The resulting test suspensions were then used in Tests A-D. Spraying a 200 ppm test suspension to the point of run-off on the test plants was the equivalent of a rate of 800 g/ha.
(§2) The test suspension was sprayed to the point of run-off on tomato seedlings. The following day the seedlings were inoculated with a spore suspension of Botrytis cinerea (the causal agent of tomato Botrytis) and incubated in a saturated atmosphere at 20° C. for 48 h, and then moved to a growth chamber at 24° C. for 3 days, after which time visual disease ratings were made.
(§3) Results for Tests A-E are given in Table A. In the Table, a rating of 100 indicates 100% disease control and a rating of 0 indicates no disease control (relative to the controls). A dash (—) indicates no test results. An asterisk “*” next to the rating value indicates a 40 ppm test suspension was used.

[2] = test system: Blumeria graminis f. sp. tritici (also known as Erysiphe graminis f. sp. tritici, the causal agent of wheat powdery mildew); assay: Test D: wheat powdery mildew, preventive spray on wheat seedlings, visual disease rating; settings: for Test D rating (100 = 100% disease control, 0 = no disease control relative to the controls): wheat powdery mildew, preventive spray on wheat seedlings
Text: as §1
The test suspension was sprayed to the point of run-off on wheat seedlings. The following day the seedlings were inoculated with a spore dust of Blumeria graminis f. sp. tritici, (also known as Erysiphe graminis f. sp. tritici, the causal agent of wheat powdery mildew) and incubated in a growth chamber at 20° C. for 8 days, after which time visual disease ratings were made.
as §3

[3] = test system: Puccinia recondite f. sp. tritici (the causal agent of wheat leaf rust); assay: Test A: wheat leaf rust, preventive spray on wheat seedlings, visual disease rating; settings: for Test A rating (100 = 100% disease control, 0 = no disease control relative to the controls): wheat leaf rust, preventive spray on wheat seedlings
Text: as §1
as §2, with “wheat” for “tomato”, “Puccinia recondite f. sp. tritici” for “Botrytis cinerea”, “wheat leaf rust)” for “tomato Botrytis)”, “24” for “48”, “20°” for “24°”, “7” for “3”
as §3

[4] = test system: Septoria tritici (the causal agent of wheat leaf blotch); assay: Test B: wheat leaf blotch, preventive spray on wheat seedlings, visual disease rating; settings: for Test B rating (100 = 100% disease control, 0 = no disease control relative to the controls): wheat leaf blotch, preventive spray on wheat seedlings
Text: as §1
as §2, with “wheat” for “tomato”, “Septoria tritici” for “Botrytis cinerea”, “wheat leaf blotch)” for “tomato Botrytis)”, “24°” for “20°”, “20°” for “24°”, “19” for “3”
as §3

[5] = asterisk: 40 ppm test suspension
[6] = no asterisk (standard test suspension concentration, not 40 ppm)
[7] = no asterisk: standard test suspension concentration, 100 = 100% disease control, 0 = no control relative to controls

Row | Structure (SMILES) | Test C rating (100 = 100% disease control, 0 = no disease control relative to the controls) [1, 5] | Test D rating (100 = 100% disease control, 0 = no disease control relative to the controls) [2, 5] | Test A rating (100 = 100% disease control, 0 = no disease control relative to the controls) [3, 5] | Test B rating (100 = 100% disease control, 0 = no disease control relative to the controls) [4, 5] | Test C rating (100 = 100% disease control, 0 = no disease control relative to the controls) [1, 6] [%] | Test D rating (100 = 100% disease control, 0 = no disease control relative to the controls) [2, 6] [%] | Test A rating (100 = 100% disease control, 0 = no disease control relative to the controls) [3, 6] [%] | also measured
1 | COc1ccc(C(O)c2cnc(C)n2-c2ccc(F)cc2Cl)c(F)c1 (racemic) [compound 300] | 0* % | 0* % | 95* % | 95* % | – | – | – | –
2 | Cc1ncc(C(O)c2ccc(F)cc2Br)n1-c1ccc(F)cc1Cl (racemic) [compound 251] | – | – | – | – | 98 | 0 | 100 | Test B rating (100 = 100% disease control, 0 = no disease control relative to the controls) [4, 6]: 93%
3 | OC(c1c(F)cc(F)cc1F)c1c(Cl)nc(Cl)n1-c1ccc(Cl)cc1Cl (centres unmarked) [compound 90] | – | – | – | – | 98 | 99 | 100 | Test B rating (100 = 100% disease control, 0 = no disease control relative to the controls) [4, 6]: 100%
4 | COc1cc(OC)cc(-n2c(C)nc(Br)c2C(O)c2c(F)cc(F)cc2F)c1 (racemic) [compound 279] | 0* % | 0* % | 0* % | 0* % | – | – | – | –
5 | Cc1ncc(C(O)c2c(F)cc(Cl)cc2F)n1-c1ccc(F)cc1Br (centres unmarked) [compound 305] | 21* % | 0* % | 9* % | 17* % | – | – | – | –
6 | Cc1cc(F)ccc1C(O)c1c(Cl)nc(Cl)n1-c1ccc(Cl)cc1Cl (single isomer, unassigned) [compound 85] | – | – | – | – | 88 | 87 | 99 | Test B rating (100 = 100% disease control, 0 = no disease control relative to the controls) [4, 6]: 100%
7 | OC(c1ccc(F)cc1F)c1c(Cl)nc(Br)n1-c1c(F)cc(Cl)cc1F (centres unmarked) [compound 125] | 100* % | 79* % | 100* % | 100* % | – | – | – | –
8 | Cc1cc(F)ccc1C(O)c1c(Br)nc(C)n1-c1ccc(F)cc1Cl (centres unmarked) [compound 397] | – | – | – | – | – | – | – | Test C rating (% disease control, tomato Botrytis) [1, 7]: 100%; Test D rating (% disease control, wheat powdery mildew) [2, 7]: 73%; Test A rating (% disease control, wheat leaf rust) [3, 7]: 100%; Test B rating (% disease control, wheat leaf blotch) [4, 7]: 100%
9 | COc1cc(F)c(C(O)c2c(Cl)nc(C)n2-c2ccc(F)cc2F)c(F)c1 (racemic) [compound 269] | 66* % | 0* % | 100* % | 96* % | – | – | – | –
10 | Cc1cc(F)ccc1C(O)c1c(C)nc(Cl)n1-c1c(F)cc(F)cc1Cl (racemic) [compound 13] | – | – | – | 100* % | 99 | 100 | 100 | –
11 | Cc1cc(Cl)ccc1C(O)c1c(Br)nc(C)n1-c1c(F)cccc1F (centres unmarked) [compound 161] | 94* % | 84* % | 92* % | 100* % | – | – | – | –
